The record followed here is patent US12428394B2, “2,4-disubstituted pyrimidine derivative, preparation method therefor and use thereof” (CHENGDU ZENITAR BIOMEDICAL TECHNOLOGY CO., LTD., priority 2019, dated 2025).

The target of assay [1] is T1, JAK2 (Homo sapiens, UniProt O60674).
T1 construct: purchased Eurofins
Briefly: In vitro kinase activity experiment, JAK2. The class given is biochemical. The conditions noted are these: inhibition rate of enzyme at 500 nM; measured by Eurofins. The gist of the method: (§1)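 Radiometric filter-binding assay: kinase, its substrate and compound in 8 mM MOPS pH 7.0, 0.2 mM EDTA, 10 mM MnCl2, with 10 mM magnesium acetate and γ33P-ATP; MgATP started the reaction, 40 min at room temperature. Stopped with 3% phosphate, spotted on Filtermat A, washed, scintillation counted.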

The test system of assay [2] is JAK2V617F. The assay can be described thus: JAK2V617F-induced myelofibrosis mouse model. Particulars: 30 mg/Kg, oral twice a day, after 8 weeks of treatment. The class given is in vivo, BALB/c mice. The text has this:
JAK2 mutant JAK2V617F gene vector MSCV-JAK2V617F-GFP (Chengdu Wandao Biotechnology Development Co., Ltd.) and BALB/c mice (Jiangsu Jicui Yaokang Biotechnology Co., Ltd.) were provided as donors. The mouse bone marrow cells were sampled and infected with JAK2V617F virus, and the infected cells were reinfused into BALB/c recipient mice irradiated by X-rays through tail vein. Then, the JAK2V617F-positive myelofibrosis mouse model was induced. […] The administration route was oral administration twice a day, and the mice in the blank control group and the model group took the same volume of normal saline orally. […] Therefore, modifications or improvements made without departing from the spirit of the present invention are within the scope of protection of the present invention.

In assay [3] the target is T2, FLT3 (Homo sapiens, UniProt P36888).
T2 construct: purchased Eurofins
T2 sequence (P36888 27-993): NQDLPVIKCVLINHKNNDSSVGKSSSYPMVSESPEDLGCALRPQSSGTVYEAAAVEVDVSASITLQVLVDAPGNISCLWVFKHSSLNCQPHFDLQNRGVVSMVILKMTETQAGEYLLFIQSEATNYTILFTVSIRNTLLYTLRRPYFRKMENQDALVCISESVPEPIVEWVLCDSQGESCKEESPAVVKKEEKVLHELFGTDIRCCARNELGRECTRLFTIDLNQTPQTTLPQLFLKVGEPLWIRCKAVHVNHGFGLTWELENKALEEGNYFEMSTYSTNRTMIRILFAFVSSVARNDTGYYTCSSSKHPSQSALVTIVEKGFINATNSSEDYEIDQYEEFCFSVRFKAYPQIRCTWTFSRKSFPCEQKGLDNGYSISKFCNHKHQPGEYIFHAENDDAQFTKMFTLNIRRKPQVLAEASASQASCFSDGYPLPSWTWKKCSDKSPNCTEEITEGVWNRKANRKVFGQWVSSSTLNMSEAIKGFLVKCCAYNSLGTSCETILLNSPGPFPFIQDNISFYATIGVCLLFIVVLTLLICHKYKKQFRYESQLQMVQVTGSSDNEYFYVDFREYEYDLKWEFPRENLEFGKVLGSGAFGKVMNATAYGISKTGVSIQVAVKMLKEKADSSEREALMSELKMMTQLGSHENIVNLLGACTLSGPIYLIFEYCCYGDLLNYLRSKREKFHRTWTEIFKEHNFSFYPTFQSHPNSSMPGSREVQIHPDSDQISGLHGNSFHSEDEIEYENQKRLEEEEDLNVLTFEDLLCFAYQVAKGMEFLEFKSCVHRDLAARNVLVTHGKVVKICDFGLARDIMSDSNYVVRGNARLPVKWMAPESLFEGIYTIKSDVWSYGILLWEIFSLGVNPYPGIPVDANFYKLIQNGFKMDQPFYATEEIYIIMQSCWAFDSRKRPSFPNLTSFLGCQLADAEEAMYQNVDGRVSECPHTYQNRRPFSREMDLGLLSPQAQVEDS
Briefly: In vitro kinase activity experiment, FLT3. In kind it is biochemical. The gist of the method: as §1

Assay [4] concerns MOLM-13 cells (FLT3-ITD-/+). The assay can be described thus: Inhibition of cell proliferation by MTT experiment, MOLM-13. In kind it is cell-based, human. The conditions noted are these: Homo sapiens, MOLM-13, 72 h, read-out: IC50 value on cell proliferation inhibition, MOLM-13 FLT3-ITD-/+. The gist of the method: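 MTT assay in MV4-11, MOLM-13 (FLT3-ITD) and SET-2 (JAK2 V617F) cells at 10,000–15,000 cells/well in IMDM with 10% FBS. Cells are exposed to compound for 72 h at 37 °C, then to MTT for 1–3 h. IC50 is fitted from inhibition rates across concentrations.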

The subject of assay [5] is Ba/F3-EpoR-JAK2V617F cells. Briefly: Ba/F3-EpoR-JAK2V617F-driven malignant tumor mouse model. In kind it is in vivo, Babl/c-nude mice. Particulars: oral twice a day. The method, then:
Babl/c-nude mice (Beijing Huafukang Biotechnology Co., Ltd.) were received and acclimated to the environment until these mice were normalized in diet and activity, and the modeling began. Ba/F3-EpoR-JAK2V617F cells (State Key Laboratory of Biotherapy, Sichuan University) were routinely incubated and grew to 80% fusion degree. Then the cells were centrifuged at 1000 rpm for 3 min., collected, resuspended by PBS and counted by a cell counter; while the survival rate of the cells was calculated. Only when the proportion of living cells exceeds 90%, can the cells be used in the experiment, with the cell concentration adjusted to 1×10^7 cells/mL. After the cells were collected, the cell suspension was pre-cooled on ice. Each mouse was inoculated as per 1.0×10^6, and batch induction modeling was carried out.

Structures are written as SMILES.

T1 sequence (O60674 whole entry): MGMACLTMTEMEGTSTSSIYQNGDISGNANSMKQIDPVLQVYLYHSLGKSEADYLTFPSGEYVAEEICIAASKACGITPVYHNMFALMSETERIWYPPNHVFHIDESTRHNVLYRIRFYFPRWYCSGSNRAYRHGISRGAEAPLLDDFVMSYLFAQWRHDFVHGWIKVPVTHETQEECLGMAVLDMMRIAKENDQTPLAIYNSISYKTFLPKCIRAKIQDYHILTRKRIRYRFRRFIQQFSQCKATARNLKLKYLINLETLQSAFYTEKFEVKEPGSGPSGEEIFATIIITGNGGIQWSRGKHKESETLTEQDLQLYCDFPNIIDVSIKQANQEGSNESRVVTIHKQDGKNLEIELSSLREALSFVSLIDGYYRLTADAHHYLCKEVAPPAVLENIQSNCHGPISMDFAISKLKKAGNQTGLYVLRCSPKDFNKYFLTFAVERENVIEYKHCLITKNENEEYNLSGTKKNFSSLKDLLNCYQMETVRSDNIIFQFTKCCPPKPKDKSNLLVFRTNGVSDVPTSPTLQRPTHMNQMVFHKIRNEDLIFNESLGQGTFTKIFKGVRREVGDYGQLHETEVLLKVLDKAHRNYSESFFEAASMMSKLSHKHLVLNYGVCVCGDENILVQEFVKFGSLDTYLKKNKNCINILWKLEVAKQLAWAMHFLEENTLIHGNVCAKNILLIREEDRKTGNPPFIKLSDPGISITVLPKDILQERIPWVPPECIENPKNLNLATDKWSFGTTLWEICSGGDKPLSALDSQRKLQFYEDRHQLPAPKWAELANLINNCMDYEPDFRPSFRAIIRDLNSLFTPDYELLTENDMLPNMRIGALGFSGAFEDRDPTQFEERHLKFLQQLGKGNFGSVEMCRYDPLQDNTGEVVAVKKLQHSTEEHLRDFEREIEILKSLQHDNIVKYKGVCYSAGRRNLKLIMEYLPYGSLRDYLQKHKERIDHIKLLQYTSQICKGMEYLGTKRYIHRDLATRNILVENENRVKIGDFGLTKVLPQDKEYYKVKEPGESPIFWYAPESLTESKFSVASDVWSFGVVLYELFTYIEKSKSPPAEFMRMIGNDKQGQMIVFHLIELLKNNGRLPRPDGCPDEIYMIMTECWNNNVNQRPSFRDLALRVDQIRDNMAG

Regarding `Cc1cnc(Nc2ccc(N3CCC(N(C)CCO)CC3)c(F)c2)nc1-c1cnn(C(C)C)c1` [CLJ-44, 5-methyl-N-(3-fluoro-4-(4-N-hydroxyethyl-4-N-methylaminopiperidine-1-yl)phenyl)-4-(1-isopropyl-1H-pyrazole-4-yl) pyrimidine-2-amine], the “Kinase activity @ 500 nM (%) JAK2” value in assay [1] amounted to 100%. Moreover, in assay [2], the “inhibition of growth rate of spleen” value was 96.73%. Besides, the IC50 in assay [3] was 4 nM; in assay [4], 10 to 100 nM. Further, the inhibition at 0.5 µM in assay [3] (40 min, read-out: Kinase activity @ 500 nM (%) FLT3) was 99%. The “inhibition of spleen growth” value came out at 18.74% in assay [5] (7.5 mg/Kg), 35.67% in assay [5] (15 mg/Kg), 79.79% in assay [5] (30 mg/Kg) and 101.08% in assay [5] (45 mg/Kg). In assay [5] (45 mg/Kg), the spleen weight result is “restored to the weight of a normal mouse”.
